Laboratory results as given in US10465230B2, “Chemiluminescence-based haemostasis assay” (Stichting Katholieke Universiteit, priority 2010, dated 2019).
Where a name gives a salt, the structure may show the parent alone.

Key:
Format in all cases: biochemical
[1] = target: T1, thrombin (Homo sapiens, UniProt P00734); test: Chemiluminescent substrate cleavage by purified thrombin (luciferase/ATP luminescence); details: for RLU thrombin: 30 nM thrombin final, instead of plasma, assay as example 1; for RLU thrombin/RLU plasmin: ratio of signal with 30 nM thrombin to signal with 40 nM plasmin
T1 construct: allowing factor Xa to convert prothrombin to thrombin
Method: (§1) In a 96-wells plate (final volume 120 μl), the following components were added:
(§2) 10 μl MeO—(CH2CH2O)2-acetyl-beta-Ala-Gly-Arg-aminoluciferin TFA salt (thrombin specific substrate (10 mM)), or pyroGlu-Phe-Lys-aminoluciferin TFA salt (plasmin specific substrate (10 mM))
(§3) 2 μl Luciferase (Sigma, 72 μg/ml),
(§4) 2 μl ATP (Sigma, 0.33 mM),
(§5) 14 μl TRIS/NaCl buffer (50 mM TRIS and 150 mM NaCl, pH 7.4).
(§6) This reaction mixture was mixed, followed by the addition of 4 μl TRIS/NaCl buffer with Ca^2+ to start thrombin generation. Final concentration 16.7 mM. The resultant was mixed rapidly, and thrombin generation was monitored in a Fluostar. The settings of the Fluostar were: 140 cycli of 30 seconds, Gain: Maximum=4095. Prior to measurement, 25 μl reaction mixture was taken from the well having a total volume of 120 μl. This was pipetted in a 384-well multi-titre plate suitable for measuring luminescence. The measurement was started immediately. Luminescence is depicted in Relative luminescence units (RLU).
Various substrates were analyzed using thrombin and plasmin The assay was essentially performed as described in example 1. However, instead of plasma, plasmin or thrombin were added to final concentrations of 30 nM (thrombin) or 40 nM (plasmin).

[2] = target: plasmin (Homo sapiens, UniProt P00747); test: Chemiluminescent substrate cleavage by purified plasmin (luciferase/ATP luminescence); details: for RLU plasmin: 40 nM plasmin final, instead of plasma, assay as example 1
plasmin, sequence (P00747 581-810 limits assumed, species assumed): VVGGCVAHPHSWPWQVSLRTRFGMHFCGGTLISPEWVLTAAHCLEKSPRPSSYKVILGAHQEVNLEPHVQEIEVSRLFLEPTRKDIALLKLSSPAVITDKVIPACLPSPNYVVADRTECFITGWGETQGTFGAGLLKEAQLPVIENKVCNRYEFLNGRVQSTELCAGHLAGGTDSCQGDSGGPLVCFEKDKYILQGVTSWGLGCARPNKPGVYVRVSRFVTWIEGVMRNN
plasmin, sequence (P00747 97-580 partner limits assumed, species assumed): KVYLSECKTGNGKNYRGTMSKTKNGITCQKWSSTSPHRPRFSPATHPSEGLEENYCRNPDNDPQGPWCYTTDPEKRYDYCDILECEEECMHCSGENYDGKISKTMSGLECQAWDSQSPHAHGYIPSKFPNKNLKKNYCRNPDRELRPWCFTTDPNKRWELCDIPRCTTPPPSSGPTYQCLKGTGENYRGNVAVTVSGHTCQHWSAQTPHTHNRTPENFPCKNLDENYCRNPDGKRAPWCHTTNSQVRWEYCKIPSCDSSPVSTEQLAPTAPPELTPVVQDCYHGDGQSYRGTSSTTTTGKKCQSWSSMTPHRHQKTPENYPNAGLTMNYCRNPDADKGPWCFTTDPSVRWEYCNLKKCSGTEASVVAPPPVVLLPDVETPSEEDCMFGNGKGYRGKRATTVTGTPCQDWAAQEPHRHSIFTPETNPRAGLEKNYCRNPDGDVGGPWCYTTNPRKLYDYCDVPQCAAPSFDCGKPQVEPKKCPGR
Method: as §1, §2, §3, §4, §5, §6
Various substrates were analyzed using thrombin and plasmin The assay was essentially performed as described in example 1. […]

[3] = target: T1, thrombin; test: Chemiluminescent substrate cleavage by purified thrombin (luciferase/ATP luminescence); details: 150 nM thrombin vs 40 nM plasmin in TBS buffer

Row | RLU thrombin [1] | RLU thrombin/RLU plasmin [1] | RLU plasmin [2] | SMILES | reactivity of thrombin and plasmin on the S2 substrate (FIG. 1b) ([2]; 4 nM plasmin vs 15 nM thrombin in TBS buffer) | reactivity of thrombin and plasmin on the S1 substrate (FIG. 1a) [3]
1 | 340768 RLU | 0.27 | 1282351 RLU | COCCOCCOCCOCCOCC(=O)NC(Cc1ccccc1)C(=O)NC(CCCNC(=N)N)C(=O)Nc1ccc2nc(C3=NC(C(=O)O)CS3)sc2c1.O=C(O)C(F)(F)F (stereo not drawn) [CH3O—(CH2CH2O)4-acetyl-Phe-Arg-aminoluciferine•TFA] | – | –
2 | 139546 RLU | 0.07 | 1999875 RLU | NCCCC[C@H](NC(=O)[C@H](Cc1ccccc1)NC(=O)[C@@H]1CCC(=O)N1)C(=O)Nc1ccc2nc(C3=N[C@@H](C(=O)O)CS3)sc2c1 [PyroGlu-Phe-Lys-aminoluciferine•TFA, pyroGlu-Phe-Lys-aminoluciferin TFA salt] | more susceptible for their respective enzyme | –
3 | 814171 RLU | 3.2 | 251299 RLU | COCCOCCOCC(=O)NCCC(=O)NCC(=O)N[C@@H](CCCNC(=N)N)C(=O)Nc1ccc2nc(C3=N[C@@H](C(=O)O)CS3)sc2c1 [MeO—(CH2CH2O)2-acetyl-beta-Ala-Gly-Arg-aminoluciferin TFA salt] | – | –
4 | 925567 RLU | 3.1 | 294631 RLU | COCC(=O)NCCC(=O)NCC(=O)N[C@@H](CCCNC(=N)N)C(=O)Nc1ccc2nc(C3=N[C@@H](C(=O)O)CS3)sc2c1.O=C(O)C(F)(F)F [CH3O-acetyl-beta-Ala-Gly-Arg-aminoluciferine•TFA] | – | –
5 | – | – | – | COCCOCCOCC(=O)NCCC(=O)NCC(=O)NC(CCCNC(=N)N)C(=O)Nc1ccc2nc(C3=NC(C(=O)O)CS3)sc2c1.O=C(O)C(F)(F)F (stereo not drawn) [MeO—(CH2CH2O)2-acetyl-beta-Ala-Gly-Arg-aminoluciferin TFA salt] | – | more susceptible for their respective enzyme
6 | 292161 RLU | 4.7 | 62387 RLU | N=C(N)NCCC[C@H](NC(=O)CNC(=O)CCN)C(=O)Nc1ccc2nc(C3=N[C@@H](C(=O)O)CS3)sc2c1.O=C(O)C(F)(F)F.O=C(O)C(F)(F)F [H-beta-Ala-Gly-Arg-aminoluciferine•2TFA] | – | –
7 | 300946 RLU | 0.40 | 759874 RLU | COCCOCCOCC(=O)NC(Cc1ccccc1)C(=O)NC(CCCNC(=N)N)C(=O)Nc1ccc2nc(C3=NC(C(=O)O)CS3)sc2c1.O=C(O)C(F)(F)F (stereo not drawn) [CH3O—(CH2CH2O)2-acetyl-Phe-Arg-aminoluciferine•TFA] | – | –
8 | 293198 RLU | 2.2 | 134983 RLU | COCCOCCOCCOCCOCC(=O)NCCC(=O)NCC(=O)N[C@@H](CCCNC(=N)N)C(=O)Nc1ccc2nc(C3=N[C@@H](C(=O)O)CS3)sc2c1.O=C(O)C(F)(F)F [CH3O—(CH2CH2O)4-acetyl-beta-Ala-Gly-Arg-aminoluciferine•TFA] | – | –
9 | 771302 RLU | 5.3 | 146486 RLU | N=C(N)NCCC[C@H](NC(=O)CNC(=O)CNC(=O)OCc1ccccc1)C(=O)Nc1ccc2nc(C3=N[C@@H](C(=O)O)CS3)sc2c1.O=C(O)C(F)(F)F [Cbz-Gly-Gly-Arg-aminoluciferine•TFA] | – | –
